How the values were obtained:
[1] = system: E. faecalis CL 4877 (VanB); assay: Strain antibiotic susceptibility phenotype (MIC interpretive standards); type: cell-based
From the text: (§1) The test panel currently includes eight enterococci and 13 staphylococci, which are selected based upon their antibiotic susceptibility profiles. The methicillin-sensitive Staphylococcus aureus (MSSA) strain MB2985 (Smith isolate) is used to assesses the potential for serum protein binding of the compounds. The paired Gram-negative strains ASP #49 (envA−) and ASP #50 (envA+) (M. Salvatore/N. Lee) are included to judge membrane effects. Table 1 presents a detailed description of the strains included in the panel, including some of the sources of the strains of bacteria.

[2] = system: E. faecalis CL 5244 (VanB); assay: as above; type: cell-based
From the text: as §1

E. faecalis MB2864 = assay: as above; type: cell-based
From the text: as §1

[3] = system: E. faecium CL 4931 (VanA); assay: as above; type: cell-based
From the text: as §1

[4] = system: E. faecium CL 5053 (VanA); assay: as above; type: cell-based
From the text: as §1

[5] = system: E. faecium CL 5242 (VanA); assay: as above; type: cell-based
From the text: as §1

E. faecium RLA1 = assay: as above; type: cell-based
From the text: as §1

[6] = system: E. gallinarum CL 4886 (VanC); assay: as above; type: cell-based
From the text: as §1

MRSA CL 3033 = assay: as above; type: cell-based, Staphylococcus aureus
From the text: as §1

MRSA COL = assay: as above; type: cell-based, Staphylococcus aureus
From the text: as §1

MSSA MB2985 = assay: as above; type: cell-based, Staphylococcus aureus
From the text: as §1

VISA/MRSA CL 5705 = assay: as above; type: cell-based, S. aureus; details: VISA/MRSA CL 5705 (Mu 3)
From the text: as §1

VISA/MRSA CL 5706 = assay: as above; type: cell-based, S. aureus; details: VISA/MRSA CL 5706 (Mu 50)
From the text: as §1

MRCNS (S. epi.) CL 3069 = assay: as above; type: cell-based
From the text: as §1

MRCNS (S. haem.) CL 171 = assay: as above; type: cell-based
From the text: as §1

MRCNS (S. haem.) CL 202 = assay: as above; type: cell-based
From the text: as §1

MRCNS (S. hom.) CL 227 = assay: as above; type: cell-based
From the text: as §1

MRCNS (S. hom.) CL 546 = assay: as above; type: cell-based
From the text: as §1

[7] = system: methicillin-sensitive Staphylococcus aureus (MSSA) strain MB2985; details: due to binding of the antibiotic; cited from earlier work

## CC1(C)S[C@@H]2[C@H](NC(=O)[C@H](N)c3ccccc3)C(=O)N2[C@H]1C(=O)O [Amp, ampicillin]
[1]
  Phenotype Amp: S (≦8)
[2]
  Phenotype Amp: S (≦8)
E. faecalis MB2864
  Phenotype Amp: S (≦8)
[3]
  Phenotype Amp: R (≧16)
[4]
  Phenotype Amp: R (≧16)
[5]
  Phenotype Amp: R (≧16)
E. faecium RLA1
  Phenotype Amp: R (≧16)
[6]
  Phenotype Amp: S (≦8)
MRSA CL 3033
  Phenotype Amp: R (≧0.5)
MRSA COL
  Phenotype Amp: R (≧0.5)
MSSA MB2985
  Phenotype Amp: S (≦0.25)
VISA/MRSA CL 5705
  Phenotype Amp: R (≧0.5)
VISA/MRSA CL 5706
  Phenotype Amp: R (≧0.5)

## C[C@@H](O)[C@H]1C(=O)N2C(C(=O)O)=C(SCCN=CN)C[C@H]12 [Ipm, imipenem]
MRCNS (S. epi.) CL 3069
  Phenotype Ipm: R (≧16)
MRCNS (S. haem.) CL 171
  Phenotype Ipm: R (≧16)
MRCNS (S. haem.) CL 202
  Phenotype Ipm: R (≧16)
MRCNS (S. hom.) CL 227
  Phenotype Ipm: R (≧16)
MRCNS (S. hom.) CL 546
  Phenotype Ipm: R (≧16)
MRSA CL 3033
  Phenotype Ipm: R (≧16)
MRSA COL
  Phenotype Ipm: R (≧16)
MSSA MB2985
  Phenotype Ipm: S (≦4)
VISA/MRSA CL 5705
  Phenotype Ipm: R (≧16)
VISA/MRSA CL 5706
  Phenotype Ipm: R (≧16)

## CCSC1=C(C(=O)O)N2C(=O)[C@H]([C@@H](C)O)[C@H]2S1 [Schering 29482]
[7]
  activity in the presence of Human Serum Albumin or Fraction V: reduced activity

## CN[C@H](CC(C)C)C(=O)N[C@H]1C(=O)N[C@@H](CC(N)=O)C(=O)N[C@H]2C(=O)N[C@H]3C(=O)N[C@H](C(=O)N[C@H](C(=O)O)c4cc(O)cc(O)c4-c4cc3ccc4O)[C@H](O)c3ccc(c(Cl)c3)Oc3cc2cc(c3O[C@@H]2O[C@H](CO)[C@@H](O)[C@H](O)[C@H]2O[C@H]2C[C@](C)(N)[C@H](O)[C@H](C)O2)Oc2ccc(cc2Cl)[C@H]1O [Van, vancomycin]
[1]
  Phenotype Van: R (≧32)
[2]
  Phenotype Van: R (≧32)
E. faecalis MB2864
  Phenotype Van: S (≦4)
[3]
  Phenotype Van: R (≧32)
[4]
  Phenotype Van: R (≧32)
[5]
  Phenotype Van: R (≧32)
E. faecium RLA1
  Phenotype Van: S (≦4)
[6]
  Phenotype Van: I (8-16)
MRCNS (S. epi.) CL 3069
  Phenotype Van: S (≦4)
MRCNS (S. haem.) CL 171
  Phenotype Van: S (≦4)
MRCNS (S. haem.) CL 202
  Phenotype Van: S (≦4)
MRCNS (S. hom.) CL 227
  Phenotype Van: S (≦4)
MRCNS (S. hom.) CL 546
  Phenotype Van: S (≦4)
MRSA CL 3033
  Phenotype Van: S (≦4)
MRSA COL
  Phenotype Van: S (≦4)
MSSA MB2985
  Phenotype Van: S (≦4)
VISA/MRSA CL 5705
  Phenotype Van: S (≦4)
VISA/MRSA CL 5706
  Phenotype Van: I (8-16)

## gentamicin
[1]
  Phenotype Gent: R (>500)
[2]
  Phenotype Gent: S (≦500)
E. faecalis MB2864
  Phenotype Gent: S (≦500)
[3]
  Phenotype Gent: R (>500)
[4]
  Phenotype Gent: R (>500)
[5]
  Phenotype Gent: R (>500)
E. faecium RLA1
  Phenotype Gent: S (≦500)
[6]
  Phenotype Gent: R (>500)
MRSA COL
  Phenotype Gent: S (≦4)
MSSA MB2985
  Phenotype Gent: S (≦4)
VISA/MRSA CL 5705
  Phenotype Gent: R (≧16)
VISA/MRSA CL 5706
  Phenotype Gent: R (≧16)

— patent US20020045574A1, “Glycopeptide antibacterial compounds and methods of using same” (priority 2000, published 2002)
